Results published in patent US20250041377A1, “PHARMACEUTICAL USE” (ENLITISA (SHANGHAI) PHARMACEUTICAL CO., LTD., priority 2018, published 2025).
Where a SMILES comes first, the peptide text is derived from it. [ ]: non-standard residue; d: D form. Hyp = O=C(O)[CH]1C[CH](O)CN1

What was measured:
common cold = test: Liquid spray to treat common cold; format: in vivo, human
Procedure: Compound B was dissolved in Injection water (WFI; from a TC-RO-0.25 T/h-2 water treatment system, Yangzhou Tiancheng Water Treatment Devices & Engineering Co., Ltd., Yangzhou, China). The concentration was 0.5 mg/mL. 5 mL was loaded into a plastic water spray bottle.
The enrolled subject in the study was inflicted with a common cold for 2 days prior to treatment. Other cold treatments were not used before treatment. The subject, who presented a cough, a sore throat and a loss of voice, was required to use the liquid spray (3 to 5 presses each time, in the morning and evening.

[1] = tested on: allergic skin (redness, itching, swelling); test: Liquid spray to treat allergic dermatitis; format: in vivo, human
Procedure: Compound B (see Example 1 above) was dissolved in Water for Injection (WFI; prepared from a TC-RO-0.25/h-2 Water Treatment System, Yangzhou Tiancheng Water Treatment Devices & Engineering Co., Ltd., Yangzhou, China). The concentration was 0.3 mg/mL.
The enrolled subjects in the study had allergic skin. Prior to treatment, the patients presented symptoms including skin redness, itching and swelling. Subjects were required to use the liquid spray in the morning and the evening after facial cleansing.

ammonia induced cough = test: Antitussive experiment, ammonia induced cough method; format: in vivo, ICR mice
Procedure: 36 ICR mice were randomly divided into 3 groups according to their body weight, labelled a CMC-Na (Negative) control group, a dextromethorphan hydrobromide (Positive) control group and a Compound B (B) group. Each group contained 12 mice, with 6 males and 6 females in each.
Compound B was administered via atomization inhalation using a YLS-8A Multifunctional cough and sputum inducing device (Jinan Yiyan Science and Technology Co., Ltd.) (0.15 ml/min) for 1 minute, once daily for 5 days. And the positive control drug was administered once daily by intragastric administration at 10 mg/kg for 5 days.
The mice were placed in an inverted beaker 1, 2, and 4 hours after the last drug administration. 1 mL of aqueous ammonia (25.0 to 28.0%) was placed on top of a boiling water bath and was evaporated into the beaker.
The time for mice to receive ammonia exposure was determined by a method characterized by analyzing data immediately after one test or a batch of tests. The results of the previous analysis determined how to conduct the next test or batch of tests.
The difference between the logarithmic value of two adjacent time periods was 0.1.
The number of coughs within 1 minute was detected using a stethoscope. If a mouse coughed three or more times over one minute, this was labelled as called ‘cough’, and less than three times in one minute was labelled ‘cough free’.
The EDT50 was defined as the ammonia stimulating time at which half mice developed a “cough”, calculated by the equation: […]
(c equals the sum of r and x, r is the number of animals in each stimulating time group, x is the logarithm of stimulation time and n was the number of animals in each group). lg is a base 10 logarithmic value.
In Table 15, R is the EDT50 in treatment group divided by the EDT50 in the Control group expressed as a percentage.

fever = test: Aerosol inhalation to treat fever; format: in vivo, human
Procedure: The same formulation as described in Example 14 above was administered to a subject who enrolled in the study having had got a fever (a body temperature over 38.5° C.) for 1 day. Other anti-fever medications were not used prior to treatment.
The subject was required to use the aerosol inhalation device in the morning and in the evening by pouring 3 mL of the formulation into an atomizer storage tank connected to an atomizer and a mask, which was worn over the mouth and nose.

[2] = tested on: TNF-α, IL-6 and IL-1B in exudate; test: Air pouch model, ELISA of exudate; format: in vivo, C57BL/6 mice; details: 300 μg/mouse into air pouch; FIG. 1
Procedure: Healthy adult male C57BL/6 mice weighing between 20 and 30 g were supplied by Nanjing Biomedicial Research Institute of Nanjing University (NBRI). Prior to any experiments being conducted, mice were housed under standardized conditions (at a constant temperature of 22±2° C., with alternating 12 hour periods of light and darkness), and were fed on a standard mouse diet with water, for about a week.
General anesthesia was induced using intraperitoneal 3% chloral hydrate (Sinopharm Chemical Reagent Co., Ltd., Shanghai, China; 1 mL/10 g of body weight). The hair of the entire dorsum was shaved and depilated 1 day before sterile air injection.
Air pouches were produced by subcutaneous injection of sterile air (5 mL) into the intrascapular area of the mice. After three days, another injection of air (3 mL) was performed to maintain the pouches. […]
Exudates were collected and volumes were quantified. The exudates were centrifuged at 3000 rpm for 10 minutes at 4° C., and the supernatants were collected and stored at −20° C. for ELISA analysis using standard ELISA test kits from Beijing 4A Biotech Co., Ltd. (Beijing) and an ELISA reader (SH-1000 Hitachi, Japan) for […] (TNF-α), interleukin 1 beta (IL-1B), interleukin 6 (IL-6). […]

For CC(N)C(=O)NC(CCCCN)C(=O)N1CCCC1C(=O)NC(CO)C(=O)NC(Cc1ccc(O)cc1)C(=O)N1CC(O)CC1C(=O)N1CC(O)CC1C(=O)NC(C(=O)NC(Cc1ccc(O)cc1)C(=O)NC(CCCCN)C(=O)O)C(C)O (stereo not drawn) [Compound B, Ala-Lys-Pro-Ser-Tyr-Hyp-Hyp-Thr-Tyr-Lys] (H-AKPSY[Hyp][Hyp]TYK-OH; configuration not given here), the throat pain (common cold; liquid spray 0.5 mg/mL in WFI, 3 to 5 presses morning and evening, after the first use) was “throat pain was relieved after the first use”, the “throat pain and voice” value (common cold; liquid spray 0.5 mg/mL, after the second use) was “throat was no longer painful and could speak” and the “time to relief of itching” value ([1]; liquid spray 0.3 mg/mL in Water for Injection, first use, subjects with allergic skin) was at most 8 min. For the same compound, the “capillary congestion, facial redness and swelling” value ([1]; liquid spray 0.3 mg/mL, morning and evening, after 1 day of use) was “no longer red and swollen after 1 day of use”, the R (ammonia induced cough; 1 hour after admin., EDT50 in treatment group divided by EDT50 in Control group) was 131.7% and the EDT50 (ammonia induced cough; 1 hour after last administration, B 195 μg/mouse atomization inhalation, Positive 10 mg/kg intragastric, once daily 5 days) was 28.2 s. For the same compound, the R (ammonia induced cough; 2 hours after admin., EDT50 treatment/Control) was 131.8%, the EDT50 (ammonia induced cough; 2 hours after last administration) was 28.2 s and the R (ammonia induced cough; 4 hours after admin., EDT50 treatment/Control) was 100 [???] %. For the same compound, the EDT50 (ammonia induced cough; 4 hours after last administration) was 26.9 s, the “effect on cough relief” value (ammonia induced cough; at 1 and 2 hours) was “positive effect on cough relief” and the “recurrence of fever symptoms” value (fever; 0.5 mg/mL aerosol inhalation, morning and evening) was “did not recur after 3 uses”. The body temperature (fever; 0.5 mg/mL, 3 mL aerosol inhalation, subject with body temperature over 38.5° C.) was “within two hours, their body temperature had dropped to normal” and the “ELISA test results of the exudate for TNF-α, IL-6 and IL-1B” value [2] was “very strong anti-inflammatory effects”.
